Data taken from US20250154105A1, “POLYCYCLIC COMPOUND AND USE THEREOF” (TYK MEDICINES, INC., priority 2021, published 2025).

Test: Rat pharmacokinetic experiment
Type: in vivo
Conditions: po, male SD rats, gavage (p.o.), 10 mg/kg, plasma
Excerpt: TEST EXAMPLE 3 PHARMACOKINETIC EXPERIMENT OF COMPOUNDS
Pharmacokinetic test of compounds T-32/T-105/T-253/T-272/T-273/T-277 of the present invention.
Experimental Protocol of Rat Pharmacokinetics
• (1) Required animals: healthy adult SD rats, male, 3 rats, 6-8 weeks old; weighing 200-300 g. • (2) Required equipments: analytical balance, animal weight scale, magnetic stirrer, refrigerated centrifuge, single-channel manual pipettor, etc. • (3) Required reagents: EDTA-Na2 anticoagulant, etc. 11.2 g of EDTA-Na2 was weighed and placed in a reagent flask, 100 mL of normal saline was added, and the flask was shook to completely dissolve it. After the preparation was completed, it was divided into 1.5 mL centrifuge tubes with 20 uL each for whole blood sample collection. • (3) About 10 mg of the sample to be tested was accurately weighed, 5% DMSO after conversion was added to dissolve, then 30% PEG400 and 65% (10% Hp-β-CD in PBS) were added for sonication, and vortex-mixed evenly to obtain a solution with a concentration of 1 mg/mL which is freshly prepared before use. • (4) 0.1 mL of sample was taken into a 1.5 mL centrifuge tube and stored at −80° C. for concentration analysis of drug administration solution. • (5) Animals were kept in rat cages, and fasted (not less than 10 h) from the day before the test(but water was allowed). The animals were separately weighed and marked at the tail on the day of the test. Blank blood was collected before administration. The blood was collected from tail vein. • (6) Route of administration: gavage (p.o.); dosage: 10 mg/kg; administration volume: 10 mL/kg. • (7) Operation process: Use the left hand with anti-bite gloves to catch the rat, make it stand upright, stretch the 16th gastric lavage needle from the throat of the mouth, insert the needle when feeling out no obvious resistance, and then inject the drug into the stomach. • (8) 0.2 ml of whole blood was collected from the tested animals and added into EDTA-Na2 anticoagulant tubes before administration and 0.5 h, 1 h, 2 h, 4 h, 6 h, 8 h, 12 h and 24 h after administration respectively. The tubes were reversed up and down for 3-4 times and mixed evenly, centrifuged at 4° C. at 10000 g for 5 min to separate plasma, and stored at −80° C. for testing. The blood was collected from tail vein. • (9) LC-MS/MS method was established to determine the concentration of original drug in plasma, the blood drug concentration-time curve was drawn, and the main pharmacokinetic parameters were calculated by non-compartment model. • (10) Pharmacokinetic parameters of T-32/T-105/T-253/T-272/T-273/T-277 were shown below in Table 2.

AUC(0-t): 2180 ng·h/mL
Cmax: 584 ng/mL
MRT last: 2.92 h
Tmax: 2 h
Compound: CC(C)NC(=O)c1ccc2c(-c3ccc(C(F)(F)F)cc3)cccc2c1 [Control compound 1, reference compound]
